System: MCF7
Test: Antiproliferative activity against human MCF7 cells by SRB assay
Format: functional, cell-based

| SMILES | IC50 |
| --- | --- |
| COc1cc(O[C@@H]2O[C@H](CO[C@@H]3OC[C@](O)(CO)[C@H]3O)[C@@H](O)[C@H](O)[C@H]2O)cc(OC)c1OC | > 20 µM |
| CC(=O)O[C@@H]1C=C([C@H]2O[C@@H]3OC(O)C4=C[C@@H](OC(C)=O)[C@H]5C(C)(C)CCC[C@]5(C)[C@]43O2)[C@](O)(C=O)[C@@]2(C)CCCC(C)(C)[C@H]12 (some centres undefined) | 0.6 µM |
| CC1=C(C=O)[C@@]2(C)CCCC(C)(C)[C@@H]2CC1=O | > 20 µM |
| CC(=O)O[C@@H]1C=C2C(=O)O[C@@H]3O[C@H](C4=C[C@@H](OC(C)=O)[C@H]5C(C)(C)CCC[C@]5(C)C4=O)O[C@@]23[C@@]2(C)CCCC(C)(C)[C@H]12 | 3.7 µM |
| COc1ccc(O[C@@H]2O[C@H](CO[C@@H]3OC[C@](O)(CO)[C@H]3O)[C@@H](O)[C@H](O)[C@H]2O)cc1OC | > 20 µM |
| CC(=O)O[C@@H]1C=C([C@H]2O[C@@H]3OC(=O)C4=C[C@@H](OC(C)=O)[C@H]5C(C)(C)CCC[C@]5(C)[C@]43O2)[C@](O)(C=O)[C@@]2(C)CCCC(C)(C)[C@H]12 | 2 µM |
| C[C@@H]1O[C@@H](OC[C@H]2O[C@@H](OC(=O)[C@@]3(C)CCC[C@]4(C)C5=C(COC5=O)[C@@H](O)C[C@@H]34)[C@H](O)[C@@H](O)[C@@H]2O)[C@H](O)[C@H](O)[C@H]1O | > 20 µM |
| Cc1ccc2c(c1)C(C(C)C)CCC2=O (centres undefined) | > 20 µM |
| CC(=O)O[C@@H]1C=C(C=O)[C@@](O)(C=O)[C@@]2(C)CCCC(C)(C)[C@H]12 | 1.6 µM |
| CC[C@@]1(O)C(=O)OCc2c1cc1n(c2=O)Cc2cc3ccccc3nc2-1 [CAMPTOTHECIN] | 0.03 µM |
| CC1(C)CCC[C@]2(C)[C@H]3COC(=O)C3=CC[C@@H]12 [CINNAMOLIDE] | > 20 µM |
| CC(=O)O[C@@H]1C=C2C(=O)OC[C@]2(O)[C@@]2(C)CCCC(C)(C)[C@H]12 [CINNAMOSMOLIDE] | 1.3 µM |
| O=Cc1ccc(O[C@@H]2O[C@H](CO)[C@@H](O)[C@@H](O)[C@H]2O)cc1 [HELICIDE] | > 20 µM |
| CC1(C)CCC[C@]2(C)[C@@H](C=O)C(C=O)=CC[C@@H]12 [POLYGODIAL] | 12.4 µM |

Source: ChEMBL document CHEMBL4007466, “Bioactive drimane sesquiterpenoids and aromatic glycosides from Cinnamosma fragrans” (Bioorg Med Chem Lett, 2017)
